Assay [1] concerns collagen. The assay can be described thus: Hydroxproline assay of mouse acute wound tissue. The assay is classed as in vivo, C3H mouse. The following applies: wound tissue of Test Example 2; absorbance at 550 nm; FIG. 4B. The protocol:
(B) The tissue used in Test Example 2 was dried in an incubator at 60° C. and then hydrolyzed at 110° C. with 6 N HCl. After adding chloramine T and Ehrlich's reagent to the hydrolyzed tissue, absorbance was measured at 550 nm using the FLUOstar OPTIMA luminometer.

Assay [2] has as its system β-catenin, keratin 14, α-SMA, collagen I. The assay can be described thus: Western blotting of mouse wound tissue. The assay is classed as in vivo, C3H mouse. Conditions: wound tissue of Test Example 2; versus control; FIG. 3. The protocol: The wound tissue used in Test Example 2 was lysed with RIPA buffer and proteins were isolated on 10% SDS polyacrylamide gel and then transferred onto a membrane. The membrane was blocked using 5% nonfat dry skim milk and then incubated with β-catenin (1:1000), α-SMA (1:1000), keratin 14 (1:1000) and collagen I (1:2000) antibodies. After inducing antigen-antibody reactions by adding enzyme-conjugated secondary antibodies that can recognize the antibodies as antigens, the result was observed using a LAS image analyzer.

Assay [3] relates to acute wound in a mouse model. Put plainly: Mouse acute wound healing model (wound closure, H&E, immunohistochemical staining). It counts as in vivo, C3H mouse. Conditions: for re-epithelialization of the acute wound (H&E staining): C3H mouse wound. The protocol: (A) In order to confirm the wound healing promoting effect of the peptide synthesized in Example 1, hair was removed the back of a 7-week-old C3H mouse and a 1.5 cm×1.5 cm sized wound was made. For a control group, 10 μL of a vehicle (50% ethanol, 20% propylene glycol, 30% water) was applied once a day for a period of 12 days. For test groups, 10 μL of the peptide or valproic acid (VPA) dissolved in the vehicle at concentrations of 100 μM and 500 mM, respectively, was applied. The skin tissue of the experimental mouse was fixed in 4% paraformaldehyde, embedded in paraffin and sliced with a thickness of 4 μm. The sliced tissue was deparaffinized, rehydrated and then stained with hematoxylin (violet) and eosin (pink) for observation of histological structure. For immunohistochemical staining, the skin tissue slice was deparaffinized, rehydrated and then incubated with 10 mM sodium citrate buffer at 121° C. for 15 minutes to recover antigenicity. The slice was blocked with albumin to prevent nonspecific antigen-antibody reactions and then antigen-antibody reactions were induced by treating with β-catenin (1:100), keratin 14 (1:1000) and collagen I (1:500) antibodies used as wound healing markers. Subsequently, after inducing antigen-antibody reactions by treating the slice with fluorescence-labeled secondary antibodies that can recognize the antibodies as antigens, the result was observed using a fluorescence microscope.
(B) In order to compare the wound healing promoting effect of the synthesized peptide with that of the existing drug, 10 μL of a vehicle (50% ethanol, 20% propylene glycol, 30% water), 100 μM PTD-DBM or 1.5 μM fibronectin was applied on a 1.5 cm×1.5 cm sized wound of a 7-week-old C3H mouse once a day for a period of 12 days.

In assay [4] the test system is collagen. The assay can be described thus: Collagen staining of mouse acute wound tissue (Masson's trichrome, picrosirius red, van Gieson). The assay is classed as in vivo, C3H mouse. The following applies: wound tissue of Test Example 2; FIG. 4A. The protocol:
(A) The mouse tissue used in Test Example 2 was fixed in 4% paraformaldehyde, embedded in paraffin and sliced with a thickness of 4 μm. The sliced tissue was deparaffinized, rehydrated and then subjected to van Gieson staining, Masson's trichrome staining and picrosirius red staining in order to evaluate the degree of collagen synthesis. Van Gieson staining was conducted by immersing the slide in Weigert's solution for 10 minutes and then in picro fuchsin solution for 2 minutes. Masson's trichrome staining was conducted by immersing the slide in Weigert's iron hematoxylin solution for 10 minutes and then in Biebrich scarlet/acid fuchsin and aniline blue for 5 minutes, respectively. Picrosirius red staining was conducted by immersing the slide in Weigert's solution for 8 minutes and then in picrosirius red for 1 hour.

The next assay relates to keratinocytes. The assay can be described thus: Immunocytochemical staining of keratinocytes (peptide infiltration, β-catenin). It counts as cell-based. Conditions: FIG. 1. The protocol: (§1) For immunocytochemical staining, keratinocytes or fibroblasts were cultured on a 24-well plate and fixed in 4% paraformaldehyde for 15 minutes. After treating with 0.1% Triton X-100 for 15 minutes so that antibodies can permeate well and blocking with albumin so as to prevent nonspecific antigen-antibody reactions, antigen-antibody reactions were induced by treating with β-catenin antibodies. Then, after inducing antigen-antibody reactions by treating with fluorescence-labeled secondary antibodies that can recognize the antibodies as antigens, the result was observed under a fluorescence microscope.

The next assay concerns fibroblasts. Put plainly: Immunocytochemical staining of fibroblasts (peptide infiltration, β-catenin). It counts as cell-based. The following applies: FIG. 1. The protocol:
as §1

The mark [5] stands for this setting: 10 μL topical once a day for 12 days, peptide 100 μM, VPA 500 mM.

In the case of `CCCC(CCC)C(=O)O` [VPA, valproic acid, reference compound], the “collagen in acute wound tissue (hydroxproline assay)” value in the assay with collagen [1] is given as “increased collagen”. Besides, the “wound healing markers β-catenin, keratin 14, α-SMA or collagen I (western blotting)” value in assay [2] is “increased as compared to the control”. Moreover, in assay [3] (setting [5]), the “re-epithelialization of the acute wound (H&E staining)” value is recorded as “quick re-epithelialization”. For the same molecule, in the assay on collagen [4], the “collagen in acute wound tissue (Masson's trichrome, picrosirius red and van Gieson staining)” value is given as “increased collagen”.

Turning to “RRRRRRRRGGGGRKTGHQICKFRKCK-(FITC) [PTD-DBM]”, the “collagen in acute wound tissue (hydroxproline assay)” value in the assay with collagen [1] is “increased collagen”. Besides, the β-catenin result in the assay on keratinocytes and with fibroblasts was “increased β-catenin in a concentration-dependent manner” each time. The “wound healing markers β-catenin, keratin 14, α-SMA or collagen I (western blotting)” value in assay [2] was “increased as compared to the control”. Besides, in assay [3] (100 μM PTD-DBM vs 1.5 μM fibronectin, 10 μL once a day for 12 days, C3H mouse, FIG. 2B), the “wound healing effect compared with fibronectin” value is listed as “excellent when compared with that of fibronectin”. The “healing of acute wound” value in assay [3] (1.5 cm×1.5 cm wound, 7-week-old C3H mouse, 10 μL topical once a day for 12 days, peptide 100 μM, VPA 500 mM, FIGS. 2A and 2B) is “could quickly heal the acute wound”. In addition, in assay [3] (setting [5]), the “re-epithelialization of the acute wound (H&E staining)” value was “quick re-epithelialization”. The “collagen in acute wound tissue (Masson's trichrome, picrosirius red and van Gieson staining)” value with collagen [4] was “increased collagen”.

The values above are taken from patent US9763994B2, “Composition for promoting wound healing” (INDUSTRY-ACADEMIC COOPERATION FOUNDATION, YONSEI UNIVERSITY, priority 2014, dated 2017).
